# Data taken from patent US11129825B2, “Polysubunit opioid prodrugs resistant to overdose and abuse” (Elysium Therapeutics, Inc., priority 2015, dated 2021).
# Experiments:
# [1] = tested on: trypsin; assay: Inhibition of trypsin-catalyzed hydrolysis of Nα-Benzoyl-L-arginine 4-nitroanilide hydrochloride in vitro; format: biochemical; details: pH 7.4, 37° C.; for Percent Nα-Benzoyl-L-arginine 4-nitroanilide hydrochloride remaining: trypsin 2,000 BAEE
# Description: This example describes in vitro experiments with a compound of the disclosure to provide a mechanism of overdose protection.
# The effect of increasing concentrations of compounds 2 and 3 on the rate and extent of the trypsin-catalyzed hydrolysis of a commercially available trypsin substrate Nα-Benzoyl-L-arginine 4-nitroanilide hydrochloride was evaluated in the presence of trypsin (2,000 BAEE activity) in a pH 7.4 phosphate buffer at 37° C. in vitro. Both buffer alone (i.e. no trypsin) and trypsin (i.e. no compound 2 or 3) controls were run contemporaneously.
# [2] = Pharmacokinetics of delivered hydrocodone after increasing oral doses in dogs; format: in vivo
# Description: The effect of increasing oral doses of compounds 2 and 3 on the pharmacokinetics of delivered hydrocodone (i.e. measured plasma hydrocodone concentrations vs. time) was evaluated in dogs. Specific pharmacokinetics parameters of the delivered opioid were calculated (e.g. Cmax, Tmax, AUC) and are presented below in the Table below.
# [3] = tested on: opioid receptors; details: after oral doses; cited from earlier work
# [4] = hydrochloride salt; cited from earlier work
# [5] = oral administration; cited from earlier work
compound,measurement,setting,value
COc1ccc2c3c1O[C@H]1C(OC(=O)N4CCC(C(=O)NCCCC[C@H](NC(=O)OCc5ccccc5)C(=O)NCCOc5ccc(C(=O)Oc6ccc7cc(C(=N)N)ccc7c6)cc5)CC4CNC(=O)[C@@H](CCCNC(=N)N)NC(=O)CNC(C)=O)=CC[C@H]4[C@@H](C2)N(C)CC[C@]314 (stereo partly shown) [Compound 2],Trypsin inhibition with increasing compound concentration,"[1]; 1 uM to 1 mM, result in words",progressively inhibit trypsin in a concentration dependent manner
same,Percent Nα-Benzoyl-L-arginine 4-nitroanilide hydrochloride remaining,"[1]; compound 1 uM, 2 min",100%
same,Percent Nα-Benzoyl-L-arginine 4-nitroanilide hydrochloride remaining,"[1]; compound 1 uM, 13 min",39%
same,Percent Nα-Benzoyl-L-arginine 4-nitroanilide hydrochloride remaining,"[1]; compound 1 uM, 24 min",0%
same,Percent Nα-Benzoyl-L-arginine 4-nitroanilide hydrochloride remaining,"[1]; compound 1 uM, 80 min",0%
same,Percent Nα-Benzoyl-L-arginine 4-nitroanilide hydrochloride remaining,"[1]; compound 1 uM, 102 min",0%
same,Percent Nα-Benzoyl-L-arginine 4-nitroanilide hydrochloride remaining,"[1]; compound 1 uM, 119 min",0%
same,Percent Nα-Benzoyl-L-arginine 4-nitroanilide hydrochloride remaining,"[1]; compound 1 uM, 234 min",0%
same,Percent Nα-Benzoyl-L-arginine 4-nitroanilide hydrochloride remaining,"[1]; compound 10 uM, 2 min",100%
same,Percent Nα-Benzoyl-L-arginine 4-nitroanilide hydrochloride remaining,"[1]; compound 10 uM, 13 min",98%
same,Percent Nα-Benzoyl-L-arginine 4-nitroanilide hydrochloride remaining,"[1]; compound 10 uM, 24 min",96%
same,Percent Nα-Benzoyl-L-arginine 4-nitroanilide hydrochloride remaining,"[1]; compound 10 uM, 80 min",94%
same,Percent Nα-Benzoyl-L-arginine 4-nitroanilide hydrochloride remaining,"[1]; compound 10 uM, 102 min",93%
same,Percent Nα-Benzoyl-L-arginine 4-nitroanilide hydrochloride remaining,"[1]; compound 10 uM, 119 min",94%
same,Percent Nα-Benzoyl-L-arginine 4-nitroanilide hydrochloride remaining,"[1]; compound 10 uM, 234 min",87%
same,Percent Nα-Benzoyl-L-arginine 4-nitroanilide hydrochloride remaining,"[1]; compound 100 uM, 2 min",100%
same,Percent Nα-Benzoyl-L-arginine 4-nitroanilide hydrochloride remaining,"[1]; compound 100 uM, 13 min",98%
same,Percent Nα-Benzoyl-L-arginine 4-nitroanilide hydrochloride remaining,"[1]; compound 100 uM, 24 min",100%
same,Percent Nα-Benzoyl-L-arginine 4-nitroanilide hydrochloride remaining,"[1]; compound 100 uM, 80 min",99%
same,Percent Nα-Benzoyl-L-arginine 4-nitroanilide hydrochloride remaining,"[1]; compound 100 uM, 102 min",99%
same,Percent Nα-Benzoyl-L-arginine 4-nitroanilide hydrochloride remaining,"[1]; compound 100 uM, 119 min",99%
same,Percent Nα-Benzoyl-L-arginine 4-nitroanilide hydrochloride remaining,"[1]; compound 100 uM, 234 min",99%
same,Percent Nα-Benzoyl-L-arginine 4-nitroanilide hydrochloride remaining,"[1]; compound 1 mM, 2 min",100%
same,Percent Nα-Benzoyl-L-arginine 4-nitroanilide hydrochloride remaining,"[1]; compound 1 mM, 13 min",100%
same,Percent Nα-Benzoyl-L-arginine 4-nitroanilide hydrochloride remaining,"[1]; compound 1 mM, 24 min",99%
same,Percent Nα-Benzoyl-L-arginine 4-nitroanilide hydrochloride remaining,"[1]; compound 1 mM, 80 min",100%
same,Percent Nα-Benzoyl-L-arginine 4-nitroanilide hydrochloride remaining,"[1]; compound 1 mM, 102 min",100%
same,Percent Nα-Benzoyl-L-arginine 4-nitroanilide hydrochloride remaining,"[1]; compound 1 mM, 119 min",100%
same,Percent Nα-Benzoyl-L-arginine 4-nitroanilide hydrochloride remaining,"[1]; compound 1 mM, 234 min",100%
same,Release of hydrocodone in vivo with increasing oral doses,"[2]; increasing oral doses, dogs, result in words",progressively attenuate the release of hydrocodone in vivo
same,AUC0-8 h of hydrocodone in dog plasma,[2]; oral dose 1.66 umol/kg,7.79 ng·h/mL
same,Maximum concentration (Cmax) of hydrocodone in dog plasma,[2]; oral dose 1.66 umol/kg,2.87 ng/mL HC
same,Time of maximum concentration (Tmax) of hydrocodone in dog plasma,[2]; oral dose 1.66 umol/kg,0.96 h
same,AUC0-8 h of hydrocodone in dog plasma,[2]; oral dose 5 umol/kg,27 ng·h/mL
same,Maximum concentration (Cmax) of hydrocodone in dog plasma,[2]; oral dose 5 umol/kg,6.49 ng/mL HC
same,Time of maximum concentration (Tmax) of hydrocodone in dog plasma,[2]; oral dose 5 umol/kg,1.38 h
same,AUC0-8 h of hydrocodone in dog plasma,[2]; oral dose 10 umol/kg,37.68 ng·h/mL
same,Maximum concentration (Cmax) of hydrocodone in dog plasma,[2]; oral dose 10 umol/kg,8.37 ng/mL HC
same,Time of maximum concentration (Tmax) of hydrocodone in dog plasma,[2]; oral dose 10 umol/kg,2.08 h
same,AUC0-8 h of hydrocodone in dog plasma,[2]; oral dose 35 umol/kg,64.38 ng·h/mL
same,Maximum concentration (Cmax) of hydrocodone in dog plasma,[2]; oral dose 35 umol/kg,11.87 ng/mL HC
same,Time of maximum concentration (Tmax) of hydrocodone in dog plasma,[2]; oral dose 35 umol/kg,2.13 h
C[C@H]1[C@H]2Cc3ccc(O)cc3[C@]1(C)CCN2CC1CC1 [cyclazocine],Duration of action,[3],~24 h
O=C1CC[C@@]2(O)[C@H]3Cc4ccc(O)c5c4[C@@]2(CCN3CC2CC2)[C@H]1O5 [naltrexone],Duration of action,[3],~24 h
same,Solubility in water,[4],about 100 mg/mL
same,Oral bioavailability,[5],5-40%
